Data from the supplement of paper PMC7661543.
± gives the standard deviation of the averaged measurements.

Assays:
Assay in all cases: relative cell number vs DMSO control (72 h) (% of DMSO); higher = less growth inhibition (more cells)
Details in all cases: sgRNA knockout: sgNT
[1] = system: BT-20
Method: (§1)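 QMAP-Seq: a pool of 5 breast cancer cell lines (ZR-75-1, SKBR3, HCC-38, MDA-MB-231, BT-20), each carrying 12 doxycycline-inducible Cas9 sgRNA perturbations (11 knockouts plus non-targeting sgNT), was treated with compounds for 72 h at four 10-fold doses (10 nM-10 uM or 1 nM-1 uM range). Barcodes were amplified and sequenced, and cell number was interpolated from 293T spike-in standard curves. The result is expressed as % of the median of DMSO wells. Two biological replicates.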

[2] = system: SKBR3
Method: as §1

[3] = system: ZR-75-1
Method: as §1

[4] = system: MDA-MB-231
Method: as §1

[5] = system: HCC-38
Method: as §1

| Compound | relative cell number ([1]; 10 nM) | relative cell number ([1]; 100 nM) | relative cell number ([1]; 1000 nM) | relative cell number ([1]; 10000 nM) | relative cell number ([2]; 10 nM) | relative cell number ([2]; 100 nM) | relative cell number ([2]; 1000 nM) | relative cell number ([2]; 10000 nM) | relative cell number ([3]; 10 nM) | relative cell number ([3]; 100 nM) | relative cell number ([3]; 1000 nM) | relative cell number ([3]; 10000 nM) | relative cell number ([4]; 10 nM) | relative cell number ([4]; 100 nM) | relative cell number ([4]; 1000 nM) | relative cell number ([4]; 10000 nM) | relative cell number ([5]; 10 nM) | relative cell number ([5]; 100 nM) | relative cell number ([5]; 1000 nM) | relative cell number ([5]; 10000 nM) | relative cell number ([1]; 1 nM) | relative cell number ([2]; 1 nM) | relative cell number ([3]; 1 nM) | relative cell number ([4]; 1 nM) | relative cell number ([5]; 1 nM) |
| --- | --- | --- | --- | --- | --- | --- | --- | --- | --- | --- | --- | --- | --- | --- | --- | --- | --- | --- | --- | --- | --- | --- | --- | --- | --- |
| O=c1[nH]cc(F)c(=O)[nH]1 [5-Fluorouracil] | 115 ± 7.9 | 110 ± 3.4 | 78.4 ± 7 | 57.9 ± 2.7 | 97.9 ± 14 | 79.7 ± 19 | 65.4 ± 18 | 17.5 ± 3.4 | 103 ± 28 | 83.2 ± 13 | 51.6 ± 1.8 | 41 ± 11 | 86.6 ± 16 | 113 ± 28 | 119 ± 16 | 49.2 ± 6.5 | 95.2 ± 6.8 | 121 ± 15 | 107 ± 21 | 66.2 ± 6.2 |  |  |  |  |  |
| S=c1nc[nH]c2nc[nH]c12 [6-Mercaptopurine] | 97.8 ± 13 | 101 ± 4.8 | 85.3 ± 6 | 62.7 ± 4.4 | 112 ± 11 | 83.1 ± 39 | 78.3 ± 21 | 48.4 ± 25 | 100 ± 55 | 66.5 ± 5.7 | 100 ± 59 | 55.5 ± 22 | 120 ± 2.9 | 79.8 ± 1.3 | 60.6 ± 15 | 63.5 ± 7.8 | 99.6 ± 7 | 99.7 ± 5.1 | 81.3 ± 10 | 61.3 ± 2.1 |  |  |  |  |  |
| Cc1sc2c(c1C)C(c1ccc(Cl)cc1)=N[C@@H](CC(=O)OC(C)(C)C)c1nnc(C)n1-2 [(+)-JQ1] | 99.3 ± 17 | 108 ± 1.9 | 108 ± 4.7 | 93.5 ± 4 | 102 ± 17 | 119 ± 21 | 91.5 ± 2.7 | 62.6 ± 3.5 | 98.5 ± 22 | 122 ± 50 | 86.2 ± 21 | 49.4 ± 1.2 | 109 ± 30 | 99.7 ± 4 | 105.4 ± 0.35 | 50.7 ± 18 | 104 ± 4.2 | 112 ± 33 | 93.2 ± 1.9 | 65.3 ± 1.1 |  |  |  |  |  |
| CN(C)CC[C@H](CSc1ccccc1)Nc1ccc(S(=O)(=O)NC(=O)c2ccc(N3CCN(Cc4ccccc4-c4ccc(Cl)cc4)CC3)cc2)cc1[N+](=O)[O-] [ABT737] | 93.2 ± 26 | 97.5 ± 10 | 94.8 ± 13 | 69.2 ± 5.1 | 84.5 ± 11 | 98.2 ± 4.7 | 85.7 ± 9.8 | 93.31 ± 0.55 | 74.8 ± 17 | 117 ± 40 | 124 ± 25 | 73.9 ± 11 | 96.3 ± 18 | 102 ± 21 | 90.4 ± 30 | 69.4 ± 16 | 104 ± 3.7 | 84 ± 12 | 88.2 ± 4.7 | 62.5 ± 18 |  |  |  |  |  |
| c1cc(Nc2cc(C3CC3)[nH]n2)nc(Nc2ccc3nc[nH]c3c2)n1 [APY29] | 120 ± 4.3 | 79.9 ± 16 | 88.3 ± 10 | 40.7 ± 5.9 | 110 ± 9 | 40.6 ± 1.2 | 12.5 ± 6.6 | 5.99 ± 1.9 | 119 ± 26 | 74 ± 39 | 23.6 ± 1.6 | 10.7 ± 9.5 | 109 ± 5.4 | 52.8 ± 4.2 | 17.1 ± 3.7 | 10.7 ± 3.8 | 91.3 ± 16 | 64.3 ± 3.1 | 26.6 ± 2.5 | 23.3 ± 0.34 |  |  |  |  |  |
| Clc1ccc(C2(c3ccc(-c4cn[nH]c4)cc3)CCNCC2)cc1 [AT7867] | 79.5 ± 20 | 108 ± 32 | 77.8 ± 12 | 24.8 ± 5.2 | 70.8 ± 4.4 | 102 ± 5 | 59.38 ± 0.082 | 10.8 ± 2.8 | 61.2 ± 35 | 64.4 ± 20 | 66.2 ± 5.2 | 11.1 ± 1.7 | 59.5 ± 17 | 84.9 ± 1.7 | 35.9 ± 6 | 14.5 ± 2.1 | 91.3 ± 5.8 | 64.1 ± 14 | 45.4 ± 2.5 | 50.5 ± 2.3 |  |  |  |  |  |
| COc1cc(CCc2cc(NC(=O)c3ccc(N4CC(C)NC(C)C4)cc3)n[nH]2)cc(OC)c1 (stereo not given) [AZD4547] | 66.6 ± 0.77 | 94.7 ± 4.5 | 81.9 ± 15 | 56.5 ± 2.4 | 62.3 ± 26 | 83 ± 9.8 | 94.1 ± 33 | 51 ± 14 | 82.1 ± 31 | 68.3 ± 13 | 83.9 ± 5.3 | 21.3 ± 10 | 79.2 ± 13 | 100.2 ± 0.6 | 99.5 ± 11 | 40.1 ± 3 | 88.6 ± 1.6 | 64.5 ± 6.9 | 54.6 ± 1.7 | 46.8 ± 1.9 |  |  |  |  |  |
| CN(C)C(=O)c1ccc(S(=O)(=O)c2ccc(NC(=O)[C@@](C)(O)C(F)(F)F)c(Cl)c2)cc1 [AZD7545] | 91.2 ± 24 | 103 ± 25 | 102 ± 22 | 95.7 ± 8.7 | 97.6 ± 9.6 | 103 ± 18 | 95.8 ± 11 | 70.3 ± 10 | 110 ± 7.3 | 116 ± 53 | 91.8 ± 25 | 42.7 ± 5.5 | 103 ± 17 | 121 ± 14 | 104 ± 39 | 89.5 ± 47 | 105 ± 6.3 | 90 ± 14 | 97.8 ± 1.1 | 82.9 ± 1.9 |  |  |  |  |  |
| C[C@@H](Nc1cc(F)cc(F)c1)c1cc(C(=O)N(C)C)cc2c(=O)cc(N3CCOCC3)oc12 [AZD8186] | 103 ± 9.9 | 117 ± 3.5 | 107 ± 23 | 98.3 ± 1.2 | 88.2 ± 0.97 | 103 ± 18 | 94.2 ± 6.8 | 59.6 ± 10 | 91.2 ± 19 | 103 ± 1.3 | 66.4 ± 4 | 49.1 ± 22 | 109 ± 3.1 | 134 ± 21 | 130 ± 80 | 83.4 ± 28 | 97.9 ± 24 | 105 ± 19 | 86.8 ± 7.5 | 79.5 ± 7.5 |  |  |  |  |  |
| C[C@]12CC[C@H](O)CC1=CC[C@@H]1[C@@H]2CC[C@]2(C)C(c3cccnc3)=CC[C@@H]12 [Abiraterone] | 115 ± 6.5 | 118 ± 20 | 116 ± 3.4 |  | 118 ± 15 | 114 ± 42 | 114 ± 10 |  | 115 ± 34 | 105 ± 18 | 90.5 ± 55 |  | 115 ± 3.5 | 99.4 ± 5.8 | 153 ± 19 |  | 107 ± 4.5 | 104 ± 5.2 | 116 ± 16 |  | 109 ± 10 | 139 ± 37 | 101 ± 16 | 127 ± 2.9 | 109 ± 2.1 |
| CN(C)C/C=C/C(=O)Nc1cc2c(Nc3ccc(F)c(Cl)c3)ncnc2cc1O[C@H]1CCOC1 [Afatinib] | 117 ± 13 | 66.9 ± 10 | 82.8 ± 8.8 | 20.2 ± 4.5 | 85.2 ± 6.7 | 34.5 ± 13 | 18.7 ± 0.37 | 10.8 ± 1.1 | 103 ± 7.7 | 72.2 ± 40 | 68.8 ± 6.8 | 13 ± 0.97 | 151 ± 15 | 77.1 ± 36 | 93.9 ± 5.5 | 15.6 ± 3.4 | 94.6 ± 18 | 101 ± 22 | 75.7 ± 7.1 | 21.2 ± 1.6 |  |  |  |  |  |
| COc1cc(Nc2ncc3c(n2)-c2ccc(Cl)cc2C(c2c(F)cccc2OC)=NC3)ccc1C(=O)O [Alisertib] | 92.5 ± 23 | 66.5 ± 8 | 77.8 ± 24 | 68.3 ± 5.7 | 121 ± 14 | 80.8 ± 8.3 | 77.2 ± 11 | 91.2 ± 9.5 | 82.4 ± 36 | 39.4 ± 3.1 | 42 ± 10 | 35.2 ± 1.5 | 112 ± 7.3 | 50.3 ± 15 | 59.5 ± 1.8 | 49.3 ± 8.4 | 99.89 ± 0.26 | 53.9 ± 1 | 57.4 ± 9.7 | 48.4 ± 1.9 |  |  |  |  |  |
